Results: ChEMBL document CHEMBL4823244, “Synthesis of norisoboldine derivatives and bioactivity assay for inducing the generation of regulatory T cells” (Bioorg Med Chem Lett, 2021)
Activity calls are given as the source filed them. The calls are words filed in the database; no cut-off is given here.

Assays:
EL4 = assay: Cytotoxicity against mouse EL4 cells assessed as effect on cell viability at 1 to 10 uM measured after 72 hrs by MTT assay; assay type: cell-based; conditions: el4, 72 h, dose 1-10 µM
T-cell [1] = assay: Induction of cell differentiation in anti-CD3/CD28 stimulated naive T-cells assessed as number of Treg cells at 0.3 uM measured after 72 hrs by flow cytometry analysis (reference value: 24 %); assay type: functional
Mus musculus [2] = assay: Antiinflammatory activity in DSS-induced ulcerative colitis mouse model assessed as reduction in MPO activity at 28 to 56 mg/kg, po administered for 10 consecutive days; assay type: functional, organism-based; conditions: dose 28-56 mg/kg, time 10.0 day
Mus musculus [3] = assay: Induction of Treg cell differentiation in DSS- induced ulcerative colitis mouse model assessed as number of Treg cells in spleens at 56 mg/kg, po administered for 10 consecutive days by flow cytometry analysis (Rvb= 6.49%); assay type: functional; conditions: time 10 day
Mus musculus [4] = assay: Induction of Treg cell differentiation in DSS- induced ulcerative colitis mouse model assessed as number of Treg cells in colonic lamina proprias at 56 mg/kg, po administered for 10 consecutive days by flow cytometry analysis (Rvb= 7.97%); assay type: functional; conditions: time 10 day
Mus musculus [5] = assay: Antiinflammatory activity in DSS-induced ulcerative colitis mouse model assessed as rescue of colon length shortening at 28 to 56 mg/kg, po administered for 10 consecutive days; assay type: functional, organism-based; conditions: dose 28-56 mg/kg, time 10.0 day
Mus musculus [6] = assay: Induction of Treg cell differentiation in DSS- induced ulcerative colitis mouse model assessed as number of Treg cells in spleens at 28 mg/kg, po administered for 10 consecutive days by flow cytometry analysis (Rvb= 6.49%); assay type: functional; conditions: time 10 day
Mus musculus [7] = assay: Induction of Treg cell differentiation in DSS- induced ulcerative colitis mouse model assessed as increase in Foxp3 mRNA level at 28 to 56 mg/kg, po administered for 10 consecutive days by Q-PCR analysis; assay type: functional, organism-based; conditions: dose 28-56 mg/kg, time 10.0 day
Mus musculus [8] = assay: Induction of Treg cell differentiation in DSS- induced ulcerative colitis mouse model assessed as number of Treg cells in colonic lamina proprias at 28 mg/kg, po administered for 10 consecutive days by flow cytometry analysis (Rvb= 7.97%); assay type: functional; conditions: time 10 day
Mus musculus [9] = assay: Antiinflammatory activity in DSS-induced ulcerative colitis mouse model assessed as protection against inflammation of colons at 28 to 56 mg/kg, po administered for 10 consecutive days by HE staining based histopathological analysis; assay type: functional, organism-based; conditions: dose 28-56 mg/kg, time 10.0 day
T-cell [10] = assay: Induction of cell differentiation in anti-CD3/CD28 stimulated naive T-cells assessed as upregulation of Foxp3 mRNA expression at 0.3 to 3 uM measured after 72 hrs by Q-PCR analysis; assay type: functional, cell-based; conditions: dose 0.3-3 µM
T-cell [11] = assay: Induction of cell differentiation in anti-CD3/CD28 stimulated naive T-cells assessed as upregulation of Foxp3 mRNA expression at 1 uM measured after 72 hrs by Q-PCR analysis; assay type: functional, cell-based
Mus musculus [12] = assay: Antiinflammatory activity in DSS-induced ulcerative colitis mouse model assessed as protection against colon destruction at 28 to 56 mg/kg, po administered for 10 consecutive days by HE staining based histopathological analysis; assay type: functional, organism-based; conditions: dose 28-56 mg/kg, time 10.0 day
T-cell [13] = assay: Induction of cell differentiation in anti-CD3/CD28 stimulated naive T-cells assessed as number of Treg cells at 3 uM measured after 72 hrs by flow cytometry analysis (reference value: 24 %); assay type: functional
Mus musculus [14] = assay: Induction of Treg cell differentiation in DSS- induced ulcerative colitis mouse model assessed as number of Treg cells in mesenteric lymph nodes at 28 mg/kg, po administered for 10 consecutive days by flow cytometry analysis (Rvb= 7.52%); assay type: functional; conditions: time 10 day
Mus musculus [15] = assay: Antiinflammatory activity in DSS-induced ulcerative colitis mouse model assessed as reduction in DAI score at 28 to 56 mg/kg, po administered for 10 consecutive days; assay type: functional, organism-based; conditions: dose 28-56 mg/kg, time 10.0 day
T-cell [16] = assay: Induction of cell differentiation in anti-CD3/CD28 stimulated naive T-cells assessed as number of Treg cells at 1 uM measured after 72 hrs by flow cytometry analysis (reference value: 24 %); assay type: functional
Mus musculus [17] = assay: Induction of Treg cell differentiation in DSS- induced ulcerative colitis mouse model assessed as number of Treg cells in mesenteric lymph nodes at 56 mg/kg, po administered for 10 consecutive days by flow cytometry analysis (Rvb= 7.52%); assay type: functional; conditions: time 10 day
T-cell [18] = assay: Induction of cell differentiation in anti-CD3/CD28 stimulated naive T-cells assessed as upregulation of IL-10 mRNA expression at 0.3 to 3 uM measured after 72 hrs by Q-PCR analysis; assay type: functional, cell-based; conditions: dose 0.3-3 µM
T-cell [19] = assay: Induction of cell differentiation in anti-CD3/CD28 stimulated naive T-cells assessed as upregulation of CD4+ CD25+ cell frequency at 1 uM measured after 72 hrs by flow cytometry analysis; assay type: functional, cell-based
Mus musculus [20] = assay: Induction of Treg cell differentiation in DSS- induced ulcerative colitis mouse model assessed as increase in IL-10 mRNA level at 28 to 56 mg/kg, po administered for 10 consecutive days by Q-PCR analysis; assay type: functional, organism-based; conditions: dose 28-56 mg/kg, time 10.0 day
T-cell [21] = assay: Induction of cell differentiation in anti-CD3/CD28 stimulated naive T-cells assessed as upregulation of Foxp3 expression at 0.2 mM measured after 72 hrs by Q-PCR analysis; assay type: functional, cell-based
T-cell [22] = assay: Induction of cell differentiation in anti-CD3/CD28 stimulated naive T-cells assessed as number of Treg cells at 0.2 mM measured after 72 hrs by flow cytometry analysis (reference value: 24 %); assay type: functional
T-cell [23] = assay: Induction of cell differentiation in anti-CD3/CD28 stimulated naive T-cells assessed as upregulation of CD4+ CD25+ cell frequency at 0.2 mM measured after 72 hrs by flow cytometry analysis; assay type: functional, cell-based
T-cell [24] = assay: Induction of cell differentiation in anti-CD3/CD28 stimulated naive T-cells assessed as upregulation of IL-10 mRNA expression at 0.2 mM measured after 72 hrs by Q-PCR analysis; assay type: functional, cell-based

Compound: COc1cc(OC)cc(C(=O)N2CCc3cc(OC)c(O)c4c3C2Cc2cc(O)c(OC)cc2-4)c1 (configuration not stated)
- Activity (EL4): Non-Toxic

Compound: COc1ccc(C(=O)N2CCc3cc(OC)c(O)c4c3C2Cc2cc(O)c(OC)cc2-4)cc1 (configuration not stated)
- Activity (EL4): Non-Toxic

Compound: COc1cc2c(cc1O)CC1c3c(cc(OC)c(O)c3-2)CCN1C(=O)c1cc(C)cc(C)c1 (configuration not stated)
- Activity (T-cell [1]): 25.2%
- Activity (Mus musculus [2]): Active
- Activity (Mus musculus [3]): 7.87%
- Activity (Mus musculus [4]): 14.5%
- Activity (Mus musculus [5]): Active
- Activity (Mus musculus [6]): 7.03%
- Activity (EL4): Non-Toxic
- Activity (Mus musculus [7]): Active
- Activity (Mus musculus [8]): 13.57%
- Activity (Mus musculus [9]): Active
- Activity (T-cell [10]): Active
- Activity (T-cell [11]): Active
- Activity (Mus musculus [12]): Active
- Activity (T-cell [13]): 36%
- Activity (Mus musculus [14]): 11.55%
- Activity (Mus musculus [15]): Active
- Activity (T-cell [16]): 31.1%
- Activity (Mus musculus [17]): 12.32%
- Activity (T-cell [18]): Active
- Activity (T-cell [19]): inactive
- Activity (Mus musculus [20]): Active

Compound: COc1cc2c(cc1O)CC1c3c(cc(OC)c(O)c3-2)CCN1Cc1ccc(Cl)cc1 (configuration not stated)
- Activity (EL4): Non-Toxic
- Activity (T-cell [11]): Active
- Activity (T-cell [19]): inactive

Compound: COc1cc2c(cc1O)CC1c3c(cc(OC)c(O)c3-2)CCN1Cc1ccc(F)cc1 (configuration not stated)
- Activity (EL4): Non-Toxic

Compound: CCCC(=O)[O-].[Na+] [SODIUM BUTYRATE]
- Activity (EL4): Non-Toxic
- Activity (T-cell [21]): Active
- Activity (T-cell [22]): 32.4%
- Activity (T-cell [23]): Active
- Activity (T-cell [24]): Active
